Key:
[1] = In vitro drug release kinetics of ECA-L-Cysteine polyanhydride microparticles; assay type: physicochemical; settings: accelerated infinite sink conditions at 37° C.; FIG. 1
Source text: FIG. 1 is a graph showing the release of ECA-L-cysteine (% release) as a function of time (days).

[2] = test system: normal, C57BL/6 mice; test: IOP lowering effect in normal mice after administration via the epischleral vein at the limbus; assay type: in vivo
Source text: FIG. 2A is a graph showing intraocular pressure (IOP, mmHg) as function of administration of free ECA and a control over time (days). FIG. 2B is a graph showing intraocular pressure (IOP, mmHg) as function of administration of ECA-L-cysteine particles and a control over time (days).

[3] = test system: human patients with elevated IOP; settings: intracameral administration; cited from earlier work

CCC(CSC[C@H](N)C(=O)O)C(=O)c1ccc(OCC(=O)O)c(Cl)c1Cl (stereo partly drawn) [ECA-L-Cysteine conjugate]
time over which ECA-L-Cysteine conjugate was continually released in vitro [1]: 14 days

C=C(CC)C(=O)c1ccc(OCC(=O)O)c(Cl)c1Cl [free ECA, ethacrynic acid]
duration of the IOP lowering effect ([2]; 1 μg drug via epischleral vein at the limbus): 1 days
IOP lowering compared to the untreated control group ([2]; 1 μg drug via epischleral vein at the limbus, FIGS. 2A and 2B): significant lowering of IOP
IOP lowering effect by Day 5 ([2]; 1 μg free drug, Day 5): gone
duration of IOP lowering [3]: three
